# What was measured:
# [1] = CD wavelength scan, helical conformation at a set temperature; type: physicochemical; details: 200 μM peptide, pH 7.0
# Method: (§1) CD spectra were recorded on an Aviv 410 circular dichroism spectrometer equipped with temperature controller. Peptide solutions at concentrations of 200 μM were used. All sample solutions made in 10 mM sodium phosphate-dibasic buffer (pH 7.0) were equilibrated for 24 hr at 4° C. before CD measurements. A Quartz Cell of 1 mm path length was used. For wavelength scan, temperature was increased to the desired points at a rate of 10° C./hr and the sample solutions were equilibrated for 10 min before the measurements. Spectra were recorded from 260 to 190 nm and mean residue ellipticity [θ] was calculated as follows;
# (§2) θ represents the ellipticity in millidegrees, N the number of amino acid residues, c the molar concentration in mol·L^−1, and l the cell path length in cm. Thermal denaturation curves were obtained at final peptide concentrations of 0.2 mM and molar ellipticity at 225 nm was measured as a function of temperature in a range of 5 to 80° C. at a heating rate of 10° C./hr. All annealed samples were heated for 30 min at 85° C. and then cooled down to 4° C. at a rate of 1° C./min followed by equilibration for 24 hr at 4° C. before the measurements. The melting temperatures were determined from the minimum points in the first derivative of the melting curves.
# [2] = Thermal unfolding (thermal denaturation) followed by circular dichroism at 225 nm; type: physicochemical; details: CD, minimum of the derivative of fraction folded plot; 0.2 mM peptide, 10 mM sodium phosphate pH 7.0; not preheated; mixtures at ratio 1:2
# Method: as §1, §2
conformation by CD at 25° C. [1],Tm (melting temperature of triple helix) [2],Substance
random coil conformations,No triple helix,Ac-(PXG)2-(PKG)4-(PXG)2-C(O)NH2 [Peptide 2]
retained the PPII helical structure,39.4 °C,Ac-(PXG)2-(PRG)4-(PXG)2-C(O)NH2 [Peptide 3]

# — US20160075765A1, “MODIFIED COLLAGEN MOLECULES” (AGENCY FOR SCIENCE, TECHNOLOGY AND RESEARCH, priority 2013, published 2016)
